According to patent US20220213030A1, “AMINOGUANIDINE HYDRAZONES AS RETROMER STABILIZERS USEFUL FOR TREATING NEUROLOGICAL DISEASES” (OSPEDALE SAN RAFFAELE SRL, priority 2019, published 2022):

Tests used:
VPS35 [1] = biological target: T1, VPS35 (Mus musculus, UniProt Q9EQH3+Q9QZ88); assay: VPS35 levels in spinal cord extracts of C57BL6J mice by western blot; format: in vivo; parameters: Lumbar spinal cords were dissected from saline perfused mice and rapidly homogenized; from tissue; host or cells: lumbar spinal cord of mice; details: 10 mg/kg daily intraperitoneal for 7 days
Method: We next asked whether the compound 2a can cross the blood brain barrier (BBB) of the brain. We run a pharmacokinetic assay on C57BL6J mice that received daily intraperitoneal injections of compound 2a (10 mg/Kg/day). Mice were sacrificed after 1, 7, 15 and 30 days saline perfused to avoid the CNS contamination of compounds contained in blood circulation and brains used for the determination of compound 2a levels by mass spectrometry. […] We next investigated in vivo if the retromer stabilization occurs in response to Compound 2a treatment. We intraperitoneally injected R55 and Compound 2a in adult C57BL6J mice as above described. After one week, mice were sacrificed, proteins extracts were assayed by western blot.
Lumbar spinal cords were dissected from saline perfused mice and rapidly homogenized in the following lysis buffer: Tris-HCl 10 mM pH 8, EDTA pH 8 1 mM, NaCl 100 mM, NP40 1% and protease inhibitor cocktail (Sigma). Protein extracts were obtained using a tight-fitting glass Potter tissue grinder (1 ml; Wheaton) and then sonicated at a frequency of 20 kHz (10 times-1s). […] Protein concentrations were measured by BCA protein assay kit (Thermofisher) according to the manufacturer's recommendations. […] Quantifications were done using the Image Lab 6.0.1 software (Bio-Rad).

neuronal cultures = details: cited from earlier work
Aβ42 = details: wild type and APP-mutated hippocampal neurons; cited from earlier work
VPS35 [2] = biological target: VPS35 (Homo sapiens, UniProt Q96QK1+Q9UBQ0); parameters: host or cells: neuronal cultures; details: neuronal cultures; cited from earlier work
VPS35 [3] = biological target: T1, VPS35; assay: VPS35 levels in Neuro2a cells by Western blot (screening of amino guanidine hydrazones); format: cell-based; parameters: endogenous in cells; host or cells: Neuro2a; details: 48 hours, compounds at 10 μM
Method: To functionally screen the majority of synthetized amino guanidine hydrazones of the invention and determine their effects on the retromer complex, we incubated Neuro2a cells with each synthetized molecule at the concentration of 10 μM.
The test was executed in triplicate for each tested compound of the invention, cells lysates were established after 48 hours' incubation, and levels of VPS35 were normalized on the housekeeping gene β-Actin by Western blot. We observed a preliminary SAR among the compounds.
Fold changes are calculated over normalized VPS35 levels measured in vehicle-treated cells.
Neuro2a cells were seeded on 12 wells multiwell at the concentration of 100 000 cells/well. Cells were incubated with each compound, including the standard R55, at 10 μM for 48 hours. Cells were then washed in PBS 1× and lysed in a buffer containing Tris-HCl 10 mM pH8, EDTA 1 mM pH8, NaCl 100 mM, NP40 1%, with protease inhibitor cocktail (Sigma) 1×. Using a cell scraper total lysates were collected from each well, quantified with BCA (BCA protein assay, Thermofisher). Five μg were resolved on precast 10% acrylamide gel (Biorad). Proteins were transferred to a PVDF membrane (Millipore) and western blot were performed using the following antibodies: goat αVPS35 (1:1000), mouse α-βActin (1:10000). Detection of proteins was obtained by a chemiluminescence detection kit (PerkinElmer).

Aβ40 = details: wild type and APP-mutated hippocampal neurons; cited from earlier work
CMC = CMC (Homo sapiens, UniProt Q96QK1+Q9UBQ0); details: in vitro; cited from earlier work
VPS26 = details: neuronal cultures; cited from earlier work

N=C(N)SCc1ccc(CSC(=N)N)s1 [Compound R55]
VPS35 levels in SC extracts (ratio versus vehicle-treated mice) (VPS35 [1]): did not increase VPS35 levels | not toxic up to (concentration) (neuronal cultures): up to 50 μM | reduction of Aβ42 levels (Aβ42): up to 39% | VPS35 levels (VPS35 [2]): ≈ 180% | VPS35 levels (in words) (VPS35 [3]): efficiently and dose-dependently increased VPS35 levels | reduction of Aβ40 levels (Aβ40): up to 44% | increase in denaturation temperature (CMC): ≈ 10 °C | VPS26 levels (VPS26): ≈ 150%
